{
  "source": "ChEMBL document CHEMBL1139151",
  "about": "“Minor groove binder antibody conjugates employing a water soluble beta-glucuronide linker” (Bioorg Med Chem Lett, 2007)",
  "format_in_all_cases": "functional, cell-based",
  "key": {"[1]": {"tested_on": "L-428", "test": "Cytotoxicity against CD30 positive and CD70 negative L428 cells assessed as cell viability after 96 hrs", "conditions": "Homo sapiens, L-428, 96 h"}, "[2]": {"tested_on": "CAKI-1", "test": "Cytotoxicity against CD70 positive Caki1 cells assessed as cell viability after 96 hrs", "conditions": "Homo sapiens, CAKI-1, 96 h"}, "[3]": {"test": "Cytotoxicity against CD30 positive Karpas 299 cells assessed as cell viability after 96 hrs", "conditions": "Homo sapiens, KARPAS-299, 96 h"}, "[4]": {"test": "Cytotoxicity against CD30 positive L540 Cy cells assessed as cell viability after 96 hrs", "conditions": "Homo sapiens, L540cy"}},
  "data": [
    {"smiles": "COc1ccc(/C=C/C(=O)N2CC(CCl)c3c2cc(N)c2ccccc32)cc1", "note": "(centres undefined)", "values": [
      {"measurement": "IC50", "setting": "[1]", "result": 0.1, "unit": "nM"},
      {"measurement": "IC50", "setting": "[2]", "result": 0.7, "unit": "nM"},
      {"measurement": "IC50", "setting": "[3]", "result": 1.2, "unit": "nM"},
      {"measurement": "IC50", "setting": "[4]", "result": 0.5, "unit": "nM"}
    ]}
  ]
}
